Reference: article PMC10266451, “SKF96365 modulates activity of CatSper channels in human sperm” (Molecular Human Reproduction, 2023)

What was measured:
Format in all cases: cell-based
[1] = molecular target: T1, CatSper (cation channel of sperm) (Homo sapiens, UniProt Q7RTX7+Q86XQ3+Q8NEC5+Q96P56); test: whole-cell patch clamp of human sperm, Cs+ CatSper currents; conditions: activation within 30 s, followed by secondary block; divalent-free Cs+ solutions, ramps -80 to 80 mV
T1 construct: gene CATSPER1; native channel complex in capacitated donor spermatozoa; with Cation channel sperm-associated auxiliary subunit beta; Cation channel sperm-associated auxiliary subunit gamma; Cation channel sperm-associated auxiliary subunit delta; Cation channel sperm-associated auxiliary subunit epsilon; Cation channel sperm-associated auxiliary subunit zeta

[2] = molecular target: T1, CatSper (cation channel of sperm); test: fluo4 Ca2+ population fluorimetry in human sperm; conditions: activation, capacitated intact sperm, sEBSS with BSA, whole-cell [Ca2+]i read-out attributed to CatSper
[3] = molecular target: T1, CatSper (cation channel of sperm); test: whole-cell patch clamp of human sperm, Cs+ CatSper currents; conditions: activation, stable; divalent-free Cs+ solutions, ramps -80 to 80 mV; direct binding to CatSper not tested

| Structure (SMILES) | % current enhancement at 30 μM [1] [%] | EC50 ([2]; mechanism distinct from progesterone) [µM] | EC50 ([2]; direct binding to CatSper not tested) [µM] | % current increase at 3 μM [3] [%] |
| --- | --- | --- | --- | --- |
| COc1ccc(CCCOC(Cn2ccnc2)c2ccc(OC)cc2)cc1 (stereo not shown) [SKF96365] | 100 | 9.5 | – | – |
| CC(=O)[C@H]1CC[C@H]2[C@@H]3CCC4=CC(=O)CC[C@]4(C)[C@H]3CC[C@]12C [progesterone] | – | – | 0.032 | 200 |
